test: in vitro; conditions: human, hela cells, % viability

| SMILES | viability at 28.5 h, 10 µM [%] |
| --- | --- |
| CSCCCNC(=O)N1CCNC(=O)C1 [CBK155848] | 98.3 |
| O=C1CN(C(=O)NCc2cccc(C(F)(F)F)c2)CCN1 [CBK155850] | 105 |
| O=C1CN(C(=O)NCc2cccc3ccccc23)CCN1 [CBK155852] | 102 |
| O=C1CN(C(=O)Nc2ccc3c(c2)OCCO3)CCN1 [CBK155860] | 92.9 |
| O=C1CN(C(=O)Nc2ccc(Cl)cc2)CCN1 [CBK155861] | 81.3 |
| O=C1CN(C(=O)Nc2ccccc2Cl)CCN1 [CBK155862] | 96.7 |
| O=C1CN(C(=O)NCc2ccc(F)cc2)CCN1 [CBK155869] | 88.2 |
| O=C1CN(C(=O)NCCOc2ccccc2)CCN1 [CBK155871] | 120 |
| CN1CCC(N2CCN(C(=O)NCc3ccc(Cl)c(Cl)c3)CC2)CC1 [CBK155883] | 92.5 |
| Cc1cnc(CNC(=O)N2CCN(C3CCN(C)CC3)CC2)cn1 [CBK155886] | 91.3 |
| CN1CCC(N2CCN(C(=O)NCCN3CCOCC3)CC2)CC1 [CBK155891] | 93.8 |
| COc1ccc(CCNC(=O)N2CCN(C3CCN(C)CC3)CC2)cc1OC [CBK155897] | 94.3 |
| CN1CCC(N2CCN(C(=O)Nc3ccc(Cl)cc3)CC2)CC1 [CBK155899] | 109 |
| CC(=O)Nc1cccc(NC(=O)N2CCN(C3CCN(C)CC3)CC2)c1 [CBK155901] | 85.1 |
| CC(C)COC(=O)N1CCC2(CC1)CC(=O)N(Cc1ccc(S(C)(=O)=O)cc1)C2=O [CBK155948] | 103 |
| CN(C)C(=O)c1ccc(-c2ccc(COC3CCN(C(=O)Cc4ccc(F)cc4)CC3)c(S(C)(=O)=O)c2)cc1 [CBK155963] | 96.1 |
| CN(C)C(=O)c1ccc(-c2ccc(COC3CCN(C(=O)c4cc5ccccc5o4)CC3)c(S(C)(=O)=O)c2)cc1 [CBK155965] | 94.6 |
| CCN(CC)CCCNC(=O)N1CCCCC1CO (stereo not drawn) [CBK155982] | 97.9 |
| O=C1CCCN1CCCNC(=O)N1CCCCC1CO (stereo not drawn) [CBK155985] | 91.8 |
| CCOC(=O)N1CCC(NC(=O)N2CCCCC2CO)CC1 (stereo not drawn) [CBK155991] | 106 |
| Cc1cc(CNC(=O)N(C)C2CCN(C)C2)no1 (stereo not drawn) [CBK155992] | 103 |
| CN1CCN(CCCNC(=O)N(C)C2CCN(C)C2)CC1 (stereo not drawn) [CBK155993] | 96.4 |
| CN1CCC(N(C)C(=O)NCC2COc3ccccc3O2)C1 (stereo not drawn) [CBK155994] | 100 |
| CN1CCC(N(C)C(=O)NCc2ccc(Cl)c(Cl)c2)C1 (stereo not drawn) [CBK155996] | 92.4 |

| SMILES | viability at 28.5 h, 10 µM [%] |
| --- | --- |
| CN1CCC(N(C)C(=O)NCc2cccc3ccccc23)C1 (stereo not drawn) [CBK155999] | 89.2 |
| CN1CCC(N(C)C(=O)NC(c2ccccc2)c2ccccc2)C1 (stereo not drawn) [CBK156000] | 96.4 |
| CN1CCC(N(C)C(=O)NCc2cccnc2)C1 (stereo not drawn) [CBK156001] | 93.5 |
| CN1CCC(N(C)C(=O)Nc2ccc3[nH]ccc3c2)C1 (stereo not drawn) [CBK156006] | 92.2 |
| CN1CCC(N(C)C(=O)Nc2ccc3c(c2)OCCO3)C1 (stereo not drawn) [CBK156008] | 116 |
| CN1CCC(N(C)C(=O)NCc2c(Cl)cccc2Cl)C1 (stereo not drawn) [CBK156014] | 99 |
| CN1CCC(N(C)C(=O)Nc2ccc(C(N)=O)cc2)C1 (stereo not drawn) [CBK156015] | 93.8 |
| COc1ccc(CCNC(=O)N(C)C2CCN(C)C2)cc1 (stereo not drawn) [CBK156019] | 100 |
| COc1cc(NC(=O)N(C)C2CCN(C)C2)cc(OC)c1OC (stereo not drawn) [CBK156022] | 101 |
| Cc1ccc(NC(=O)N(C)C2CCN(C)C2)cc1 (stereo not drawn) [CBK156023] | 103 |
| CN1CCC(N(C)C(=O)Nc2cccnc2)C1 (stereo not drawn) [CBK156026] | 93.8 |
| CCOC(=O)N1CCC(NC(=O)N(C)C2CCN(C)C2)CC1 (stereo not drawn) [CBK156027] | 102 |
| CN1CCN(CCCNC(=O)N2CCCC(CO)C2)CC1 (stereo not drawn) [CBK156029] | 99.7 |
| O=C(NCC1COc2ccccc2O1)N1CCCC(CO)C1 (stereo not drawn) [CBK156030] | 91.3 |
| CSCCCNC(=O)N1CCCC(CO)C1 (stereo not drawn) [CBK156031] | 106 |
| O=C(NCc1cccnc1)N1CCCC(CO)C1 (stereo not drawn) [CBK156037] | 90.5 |
| COCCNC(=O)N1CCCC(CO)C1 (stereo not drawn) [CBK156040] | 88.3 |
| COc1cc(CNC(=O)N2CCCC(CO)C2)cc(OC)c1OC (stereo not drawn) [CBK156041] | 91.5 |
| O=C(Nc1ccc(Cl)cc1)N1CCCC(CO)C1 (stereo not drawn) [CBK156047] | 112 |
| O=C(NCc1ccc(Cl)cc1)N1CCCC(CO)C1 (stereo not drawn) [CBK156053] | 96.6 |
| O=C(NCc1ccc(F)cc1)N1CCCC(CO)C1 (stereo not drawn) [CBK156056] | 102 |
| COc1ccc(CCNC(=O)N2CCCC(CO)C2)cc1 (stereo not drawn) [CBK156059] | 87.1 |
| CCN(CC)CCCNC(=O)N1CCCC(CO)C1 (stereo not drawn) [CBK156061] | 103 |
| Cc1ccc(NC(=O)N2CCCC(CO)C2)cc1 (stereo not drawn) [CBK156065] | 77.9 |

| SMILES | viability at 28.5 h, 10 µM [%] |
| --- | --- |
| O=C(O)C1CCN(C(=O)NCCOc2ccccc2)CC1 [CBK156072] | 82.2 |
| COc1ccc(CCNC(=O)N2CCC(C(=O)O)CC2)cc1 [CBK156073] | 75.6 |
| CC(C)CCNC(=O)N1CCC(C(=O)O)CC1 [CBK156075] | 95.3 |
| CCOC(=O)N1CCC(NC(=O)N2CCC(C(=O)O)CC2)CC1 [CBK156080] | 95.2 |
| CN1CCC(N2CCN(C(=O)NCCCN3CCCC3=O)CC2)CC1 [CBK156105] | 102 |
| CN1CCC(N2CCN(C(=O)Nc3cccnc3)CC2)CC1 [CBK156111] | 93.1 |
| CCOC(=O)N1CCC(NC(=O)N2CCN(C3CCN(C)CC3)CC2)CC1 [CBK156113] | 92.2 |
| CCN(CC)C(=O)C1CCCN(C(=O)NCc2cc(C)on2)C1 (stereo not drawn) [CBK156114] | 89.5 |
| CCN(CC)C(=O)C1CCCN(C(=O)NCC2COc3ccccc3O2)C1 (stereo not drawn) [CBK156116] | 81.4 |
| CCN(CC)C(=O)C1CCCN(C(=O)NCc2ccc3c(c2)OCO3)C1 (stereo not drawn) [CBK156121] | 100 |
| CCN(CC)C(=O)C1CCCN(C(=O)NCc2cnc(C)cn2)C1 (stereo not drawn) [CBK156122] | 101 |
| CCN(CC)C(=O)C1CCCN(C(=O)NCCN2CCOCC2)C1 (stereo not drawn) [CBK156128] | 96.1 |
| CCN(CC)C(=O)C1CCCN(C(=O)NCCOC)C1 (stereo not drawn) [CBK156129] | 99.2 |
| CCN(CC)C(=O)C1CCCN(C(=O)NCc2cc(OC)c(OC)c(OC)c2)C1 (stereo not drawn) [CBK156130] | 86.8 |
| CCN(CC)C(=O)C1CCCN(C(=O)Nc2ccc(N(CC)CC)cc2)C1 (stereo not drawn) [CBK156139] | 94.4 |
| CCN(CC)C(=O)C1CCCN(C(=O)NC2CCc3ccccc32)C1 (stereo not drawn) [CBK156156] | 92.2 |
| CCN(CC)C(=O)C1CCCN(C(=O)Nc2cccnc2)C1 (stereo not drawn) [CBK156157] | 96.8 |
| Cc1cc(CNC(=O)N2CCCCC2CO)no1 (stereo not drawn) [CBK156160] | 108 |
| O=C(NCC1COc2ccccc2O1)N1CCCCC1CO (stereo not drawn) [CBK156162] | 103 |
| CSCCCNC(=O)N1CCCCC1CO (stereo not drawn) [CBK156163] | 108 |
| O=C(NCc1ccc(Cl)c(Cl)c1)N1CCCCC1CO (stereo not drawn) [CBK156164] | 113 |
| O=C(NCc1cccc(C(F)(F)F)c1)N1CCCCC1CO (stereo not drawn) [CBK156165] | 90.7 |
| O=C(NCc1cccc2ccccc12)N1CCCCC1CO (stereo not drawn) [CBK156167] | 99.7 |
| O=C(Nc1ccc(Cl)cc1)N1CCCCC1CO (stereo not drawn) [CBK156179] | 99.5 |

| SMILES | viability at 28.5 h, 10 µM [%] |
| --- | --- |
| CC(=O)Nc1cccc(NC(=O)N2CCCCC2CO)c1 (stereo not drawn) [CBK156181] | 101 |
| CCc1ccc(CNC(=O)Cn2nnc(-c3ccc(CN4CCC(C)CC4)nc3SC)n2)cc1 [CBK156205T] | 90.3 |
| CN1CCC(N2CCN(C(=O)c3ccc(-c4ccc(OC(F)(F)F)cc4)nc3)CC2)CC1 [CBK156206] | 92.8 |
| O=C(NCC1COc2ccccc2O1)c1ccc(-c2ccc(OC(F)(F)F)cc2)nc1 (stereo not drawn) [CBK156214] | 88.3 |
| CSCCCNC(=O)c1ccc(-c2ccc(OC(F)(F)F)cc2)nc1 [CBK156216] | 95 |
| NS(=O)(=O)c1ccc(CNC(=O)c2ccc(-c3ccc(OC(F)(F)F)cc3)nc2)cc1 [CBK156246] | 84.1 |
| N#Cc1ccc(CNC(=O)c2ccc(-c3ccc(OC(F)(F)F)cc3)nc2)cc1 [CBK156249] | 87.2 |
| Cc1cc(Cl)ccc1CNC(=O)c1ccc(-c2ccoc2)nc1 [CBK156254] | 101 |
| CSCCCNC(=O)c1ccc(-c2ccoc2)nc1 [CBK156262] | 99 |
| O=C(NCc1cccs1)c1ccc(-c2ccoc2)nc1 [CBK156269] | 106 |
| O=C(NCc1cccnc1)c1ccc(-c2ccoc2)nc1 [CBK156275] | 89.6 |
| CN1CCN(C(=O)c2ccc(-c3ccoc3)nc2)CC1 [CBK156280] | 100 |
| CC(C)c1ccc(CNC(=O)c2ccc(-c3ccoc3)nc2)cc1 [CBK156292] | 91.4 |
| CN(C)S(=O)(=O)Nc1ccc(-c2nnn[nH]2)cc1 [CBK156312] | 96.2 |
| CN(C)S(=O)(=O)Nc1ccc2[nH]ccc2c1 [CBK156321] | 92.2 |
| O=S(=O)(Nc1ccc2[nH]ccc2c1)c1c(Cl)cc(C(F)(F)F)cc1Cl [CBK156328] | 75.5 |
| CCOC(=O)CCCNC(=O)N1CCCC(CO)C1 (stereo not drawn) [CBK156344] | 102 |
| CN1CCN(CCCNC(=O)N(CCC#N)C2CCCCC2)CC1 [CBK156346] | 112 |
| Cc1cnc(CNC(=O)N(CCC#N)C2CCCCC2)cn1 [CBK156352] | 96.5 |
| N#CCCN(C(=O)NCc1cccc2ccccc12)C1CCCCC1 [CBK156353] | 89 |
| N#CCCN(C(=O)NCc1cccnc1)C1CCCCC1 [CBK156355] | 104 |
| N#CCCN(C(=O)NCCN1CCOCC1)C1CCCCC1 [CBK156357] | 107 |
| COc1cc(CNC(=O)N(CCC#N)C2CCCCC2)cc(OC)c1OC [CBK156359] | 98.1 |
| N#CCCN(C(=O)Nc1ccc2[nH]ccc2c1)C1CCCCC1 [CBK156362] | 97.9 |
